Results from PubChem BioAssay AID248 (DTP/NCI, 2004).
“And” between values parts separate entries of the source, which are not always exact repeats. Identical values can stand only once. Inconclusive results and toxic doses are left out. Cut-off read from the data, not from the text of the source: active = T/C of 150% or more; inactive = T/C below 125%. Square brackets hold non-standard residues; d marks the D form. Peptide text beside a SMILES is read from it. * marks the point of attachment. ξ: configuration not given here. Cbz = O=C(OCc1ccccc1)*; ξI = CCC(C)C(N)C(=O)O; OBn = c1ccc(CO*)cc1

Tested on: L1210 leukemia ip in BDF1 mice, survival T/C
Test: NCI In Vivo Anticancer Drug Screen. Data for tumor model L1210 Leukemia (intraperitoneal) in B6D2F1 (BDF1) mice
Conditions: endpoint: mean survival time, higher = longer survival
How it was run: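 Tumor was transplanted into mice, which were then dosed with test compound or vehicle alone. Survival was recorded for each group, and the treated figure was expressed relative to the control figure.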

[1] = dose: 100.0 mg/kg/injection, schedule: Q01DX009 (ip), vehicle: saline
[2] = dose: 100.0 mg/kg/injection, schedule: Q04DX003 (ip), vehicle: saline
[3] = dose: 100.0 mg/kg/injection, schedule: Q04DX003 (ip), vehicle: other
[4] = dose: 200.0 mg/kg/injection, schedule: Q04DX003 (ip), vehicle: other
[5] = dose: 400.0 mg/kg/injection, schedule: Q04DX003 (ip), vehicle: other
[6] = dose: 100.0 mg/kg/injection, schedule: Q04DX003 (ip), vehicle: Klucel (hydroxypropylcellulose) (HPC)
[7] = dose: 400.0 mg/kg/injection, schedule: Q04DX003 (ip), vehicle: Klucel (hydroxypropylcellulose) (HPC)
[8] = dose: 25.0 mg/kg/injection, schedule: Q01DX009 (ip), vehicle: saline
[9] = dose: 200.0 mg/kg/injection, schedule: Q01DX009 (ip), vehicle: saline
[10] = dose: 100.0 mg/kg/injection, schedule: Q04DX003 (ip), vehicle: saline with Tween-80
[11] = dose: 200.0 mg/kg/injection, schedule: Q04DX003 (ip), vehicle: saline with Tween-80
[12] = dose: 400.0 mg/kg/injection, schedule: Q04DX003 (ip), vehicle: saline with Tween-80
[13] = dose: 100.0 mg/kg/injection, schedule: Q01DX009 (ip), vehicle: saline with Tween-80
[14] = dose: 200.0 mg/kg/injection, schedule: Q01DX009 (ip), vehicle: saline with Tween-80
[15] = dose: 5.0 mg/kg/injection, schedule: Q01DX001 (ip), vehicle: saline
[16] = dose: 10.0 mg/kg/injection, schedule: Q01DX001 (ip), vehicle: saline
[17] = dose: 20.0 mg/kg/injection, schedule: Q01DX001 (ip), vehicle: saline
[18] = dose: 40.0 mg/kg/injection, schedule: Q01DX001 (ip), vehicle: saline
[19] = dose: 200.0 mg/kg/injection, schedule: Q04DX003 (ip), vehicle: Klucel (hydroxypropylcellulose) (HPC)
[20] = dose: 100.0 mg/kg/injection, schedule: Q01DX001 (ip), vehicle: carboxymethylcellulose (CMC)
[21] = dose: 200.0 mg/kg/injection, schedule: Q01DX001 (ip), vehicle: carboxymethylcellulose (CMC)
[22] = dose: 400.0 mg/kg/injection, schedule: Q01DX001 (ip), vehicle: carboxymethylcellulose (CMC)
[23] = dose: 400.0 mg/kg/injection, schedule: Q01DX009 (ip), vehicle: saline with Tween-80

Measured: T/C

COc1ccc(CC2=NCCc3cc(OC)c(OC)cc32)cc1OC
inactive: dose: 75.0 mg/kg/injection, schedule: Q01DX001 (ip), vehicle: saline 97 % of control | [1] 96 % of control and 90 % of control | [2] 110 % of control and 89 % of control | dose: 150.0 mg/kg/injection, schedule: Q01DX001 (ip), vehicle: saline 100 % of control

CCC(C)C(NC(=O)CNC(=O)OCc1ccccc1)C(=O)OCc1ccccc1 (stereo not drawn) (Cbz-Gly-[ξI]-OBn)
inactive: [3] 104 % of control | [4] 98 % of control | [5] 103 % of control

C1CCC2(CC1)COC1(OC2)OCC2(CCCCC2)CO1
inactive: dose: 100.0 mg/kg/injection, schedule: Q04DX002 (ip), vehicle: Klucel (hydroxypropylcellulose) (HPC) 97 % of control | dose: 200.0 mg/kg/injection, schedule: Q04DX002 (ip), vehicle: Klucel (hydroxypropylcellulose) (HPC) 101 % of control | dose: 400.0 mg/kg/injection, schedule: Q04DX002 (ip), vehicle: Klucel (hydroxypropylcellulose) (HPC) 90 % of control

O=C(CCCCn1cnc2c(=S)nc[nH]c21)Nc1ccc(C(=O)O)cc1
inactive: dose: 50.0 mg/kg/injection, schedule: Q01DX Z (ip), vehicle: carboxymethylcellulose (CMC) 101 % of control | dose: 100.0 mg/kg/injection, schedule: Q01DX Z (ip), vehicle: carboxymethylcellulose (CMC) 95 % of control | dose: 200.0 mg/kg/injection, schedule: Q01DX Z (ip), vehicle: carboxymethylcellulose (CMC) 104 % of control | dose: 400.0 mg/kg/injection, schedule: Q01DX Z (ip), vehicle: carboxymethylcellulose (CMC) 96 % of control

COc1ccc(OC)c(NC(=O)N(CCO)C2CCCCC2)c1
inactive: [6] 90 % of control | [7] 97 % of control

Nc1ccc2ncccc2c1
inactive: [8] 97 % of control | dose: 50.0 mg/kg/injection, schedule: Q01DX009 (ip), vehicle: saline 93 % of control | [1] 105 % of control and 90 % of control | dose: 100.0 mg/kg/injection, schedule: Q04DX002 (ip), vehicle: alcohol 96 % of control | [2] 94 % of control | [9] 90 % of control | dose: 200.0 mg/kg/injection, schedule: Q04DX002 (ip), vehicle: alcohol 101 % of control | dose: 200.0 mg/kg/injection, schedule: Q04DX003 (ip), vehicle: saline 96 % of control | dose: 400.0 mg/kg/injection, schedule: Q04DX002 (ip), vehicle: alcohol 109 % of control | dose: 400.0 mg/kg/injection, schedule: Q04DX003 (ip), vehicle: saline 107 % of control

Clc1ccc(OCc2sc3ccc(Cl)cc3c2CN2CCOCC2)cc1
inactive: [10] 91 % of control | [11] 90 % of control | [12] 91 % of control

CC(C)(C)C#CCCl
inactive: dose: 100.0 mg/kg/injection, schedule: Q01DX001 (ip), vehicle: saline 96 % of control | [1] 116 % of control | dose: 200.0 mg/kg/injection, schedule: Q01DX001 (ip), vehicle: saline 105 % of control | [9] 97 % of control | dose: 400.0 mg/kg/injection, schedule: Q01DX001 (ip), vehicle: saline 94 % of control

C=CCc1cccc(OC)c1OCCN(CC)CC
inactive: dose: 6.25 mg/kg/injection, schedule: Q01DX009 (ip), vehicle: saline 111 % of control | dose: 12.5 mg/kg/injection, schedule: Q01DX009 (ip), vehicle: saline 102 % of control | [8] 100 % of control

O=C(O)c1ccc(-c2ccc(C(=O)O)cc2I)c(I)c1
inactive: [13] 92 % of control | [10] 91 % of control | [14] 87 % of control | [11] 96 % of control | [12] 94 % of control

CCOC(=O)/C=C(\CBr)OC
inactive: dose: 12.5 mg/kg/injection, schedule: Q01DX009 (ip), vehicle: Klucel (hydroxypropylcellulose) (HPC) 105 % of control | dose: 25.0 mg/kg/injection, schedule: Q01DX009 (ip), vehicle: Klucel (hydroxypropylcellulose) (HPC) 98 % of control | dose: 25.0 mg/kg/injection, schedule: Q04DX003 (ip), vehicle: Klucel (hydroxypropylcellulose) (HPC) 90 % of control | dose: 50.0 mg/kg/injection, schedule: Q01DX009 (ip), vehicle: Klucel (hydroxypropylcellulose) (HPC) 94 % of control and 103 % of control | dose: 50.0 mg/kg/injection, schedule: Q04DX003 (ip), vehicle: Klucel (hydroxypropylcellulose) (HPC) 96 % of control | [6] 96 % of control

CCOC(=O)CC(=O)C(F)(F)F.CCOC(=O)CC(=O)C(F)(F)F.[Ni]
inactive: [15] 96 % of control | [16] 98 % of control | [17] 102 % of control | [18] 106 % of control

CCOc1ccc(CCC(=O)O)cc1
inactive: [6] 100 % of control | [19] 105 % of control | [7] 94 % of control

CC(=O)[O][Sn]([CH2]c1ccccc1)([CH2]c1ccccc1)[O]C(C)=O
inactive: dose: 100.0 mg/kg/injection, schedule: Q01DX009 (ip), vehicle: other 109 % of control | [3] 92 % of control | dose: 200.0 mg/kg/injection, schedule: Q01DX009 (ip), vehicle: other 98 % of control | [4] 97 % of control | dose: 400.0 mg/kg/injection, schedule: Q01DX009 (ip), vehicle: other 95 % of control | [5] 95 % of control

NCCCNCCNCCCN
inactive: dose: 100.0 mg/kg/injection, schedule: Q04DX002 (ip), vehicle: saline 98 % of control | dose: 200.0 mg/kg/injection, schedule: Q04DX002 (ip), vehicle: saline 98 % of control

Cc1cc(NC(=O)NC/C=C/Br)c2ccccc2n1
inactive: dose: 100.0 mg/kg/injection, schedule: Q01DX001 (ip), vehicle: Klucel (hydroxypropylcellulose) (HPC) 97 % of control | [6] 98 % of control | dose: 200.0 mg/kg/injection, schedule: Q01DX001 (ip), vehicle: Klucel (hydroxypropylcellulose) (HPC) 108 % of control | [19] 93 % of control | dose: 400.0 mg/kg/injection, schedule: Q01DX001 (ip), vehicle: Klucel (hydroxypropylcellulose) (HPC) 97 % of control | [7] 101 % of control

Cc1[nH]c2ccccc2c1C(c1ccccc1O)c1c(C)[nH]c2ccccc12
inactive: dose: 100.0 mg/kg/injection, schedule: Q01DX009 (ip), vehicle: Klucel (hydroxypropylcellulose) (HPC) 97 % of control | dose: 200.0 mg/kg/injection, schedule: Q01DX009 (ip), vehicle: Klucel (hydroxypropylcellulose) (HPC) 103 % of control | dose: 400.0 mg/kg/injection, schedule: Q01DX009 (ip), vehicle: Klucel (hydroxypropylcellulose) (HPC) 101 % of control

CC1CCC(C(C)C)C2(C1)NC(=O)N(CC(=O)O)C2=O (configuration not stated)
inactive: [10] 93 % of control | [11] 100 % of control | [12] 104 % of control

CC(=O)Nc1cc2c(cc1Cl)-c1ccc(F)cc1C2=O
inactive: [6] 97 % of control | [19] 103 % of control | [7] 105 % of control

CC1(c2cccs2)NC(=O)NC1=O (configuration not stated)
inactive: [20] 95 % of control | [13] 102 % of control | [10] 105 % of control and 96 % of control | [21] 101 % of control | [14] 110 % of control | [11] 109 % of control and 96 % of control | [22] 97 % of control | [23] 109 % of control | [12] 107 % of control and 105 % of control

CN1CCN(C(=O)Nc2cccc(F)c2)CC1
inactive: dose: 25.0 mg/kg/injection, schedule: Q01DX009 (ip), vehicle: saline with Tween-80 97 % of control | dose: 50.0 mg/kg/injection, schedule: Q01DX009 (ip), vehicle: saline with Tween-80 101 % of control | [13] 94 % of control and 96 % of control

CC1(C)N=C(N)N=C(N)N1c1cccc(CCCCc2cccc(NC(=O)CBr)c2)c1
inactive: [15] 102 % of control | [16] 98 % of control | [17] 98 % of control | [18] 112 % of control

O=C(O)C1CC=CCC1c1ccccc1 (configuration not stated)
inactive: [3] 96 % of control | [4] 96 % of control | [5] 101 % of control

COC(=O)c1cc(OC)cc(OC)c1
inactive: [3] 88 % of control | [4] 92 % of control | [5] 97 % of control

Clc1ccc(Sc2ccc(Br)cc2)cc1
inactive: dose: 50.0 mg/kg/injection, schedule: Q01DX001 (ip), vehicle: carboxymethylcellulose (CMC) 103 % of control | [20] 101 % of control | [21] 103 % of control | [22] 101 % of control

COC(=O)C/C=C/CC(=O)OC
inactive: [13] 95 % of control | [14] 90 % of control | [23] 88 % of control
